Read-outs that look alike come from different tables or passages of the source.
System: TGFβ signal
Experiment: TGFβ signal inhibitory activity, (SBE)4-Luc reporter in A549 cells (Test Examples 1A and 1B)
Format: cell-based, human
Conditions: Homo sapiens, A549, read-out: TGFβ inhibition rate, %
Summary of the method: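 Stable A549 line carrying (SBE)4-Luc Smad3-binding reporter treated with compound plus TGFβ-1 (2 ng/ml) for 4 hr; luciferase read by chemiluminescence. Percent inhibition relative to TGFβ-only and untreated cells, tested at 3 µM and 10 µM, some also at 1 µM.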

[1] = 3 µM, compounds of Reference Examples (Test Example 1B)
[2] = 10 µM, compounds of Reference Examples (Test Example 1B)
[3] = test compound 3 µM, Reference Examples, Table 1B
[4] = test compound 10 µM, Reference Examples, Table 1B
[5] = test compound 3 µM, TGFβ-1 2 ng/ml, 4 hr, Table 1A
[6] = test compound 10 µM, TGFβ-1 2 ng/ml, 4 hr, Table 1A

| Structure (SMILES) | inhibition at 3 µM [1] | inhibition at 10 µM [2] | inhibition at 3 µM [3] | inhibition at 10 µM [4] | other results |
| --- | --- | --- | --- | --- | --- |
| COc1cc2nccc(Oc3cc4ccccc4nc3-c3cc(C)c(Cl)s3)c2cc1OC [r290] | 18% | 57% | – | – | – |
| COc1cc2c(Oc3cc4cccnc4nc3C)ccnc2cc1OCCN1CCCCC1 [r440] | 100% | 100% | – | – | – |
| COc1cc2nccc(Oc3ccc(C)cc3C(=O)c3ccno3)c2cc1OC [Compound r61] | – | – | 61% | 98% | – |
| COc1cc2nccc(Oc3cc(Cl)ccc3C(C)=O)c2cc1OC [r181] | 42% | 82% | – | – | – |
| COc1cc2nccc(Oc3ccc(C)cc3-c3cccnc3)c2cc1OC [r168] | 22% | 74% | – | – | – |
| COc1cc2c(Oc3cc4ccccc4nc3C)ccnc2cc1OCCN1CCCC(CO)C1 (centres unmarked) [Compound r359] | 100% | 100% | – | – | – |
| COc1cc2c(Oc3ccc(C)cc3C(=O)c3ccccc3)ccnc2cc1OCCCCn1ccnc1 [Compound r150] | – | – | 97% | 100% | – |
| COc1cccc(-c2nc(C)ccc2Oc2ccnc3cc(OC)c(OC)cc23)c1 [Compound r238] | 92% | 100% | – | – | – |
| COc1cc2nccc(Oc3cc4cccnc4nc3-c3ccc(C)cc3)c2cc1OC [r428] | 67% | – | – | – | – |
| COc1cc2nccc(Oc3cc(Cl)cnc3OC3CCCC3)c2cc1OC [r222] | 44% | 100% | – | – | – |
| COc1cc2c(Oc3cc(C)c(C)nc3-c3ccc(C)cn3)ccnc2cc1O [Compound r453] | 72% | 98% | – | – | – |
| COc1cc2nccc(Oc3cc4ccccc4nc3C(=O)c3ccccc3)c2cc1OC [r279] | 98% | 100% | – | – | – |
| CCc1ccc(Oc2ccnc3ccc(OCCOC(=O)C(C)(C)CC)cc23)c(-c2ncccn2)n1 [Compound 224, 2-[4-(6-Ethyl-2-pyrimidin-2-yl-pyridin-3-yloxy)-quinolin-6-yloxy]-ethyl 2,2-dimethyl-butanoate] | – | – | – | – | inhibition at 3 µM [5]: 95%; inhibition at 10 µM [6]: 100% |
| COC(=O)c1cc2nccc(Oc3cc4cccnc4nc3-c3ccccc3)c2cc1OC [Compound 116, Methyl 6-methoxy-4-(2-phenyl-[1,8]naphthyridin-3-yloxy)-quinoline-7-carboxylate] | – | – | – | – | inhibition at 3 µM [5]: 99%; inhibition at 10 µM [6]: 100% |
| COc1cc2nccc(Oc3cc4cccnc4nc3-c3ccccc3)c2cc1F [Compound 59, 3-(6-Fluoro-7-methoxy-quinolin-4-yloxy)-2-phenyl-[1,8]naphthyridine] | – | – | – | – | inhibition at 1 µM (test compound 1 µM, TGFβ-1 2 ng/ml, 4 hr, Table 1A): 93% |
| COc1cc2c(Oc3ccc(C)cc3C(=O)c3ccccc3)ccnc2cc1OCCCn1ccnc1 [r140] | – | – | 85% | 100% | – |
| COc1cc2c(Oc3ccc(C)cc3C(=O)c3ccccc3)ccnc2cc1OCCNCCO [r124] | – | – | 99% | 100% | – |
| COc1cc2nccc(Oc3ccc4ccccc4c3C=O)c2cc1OC [Compound r27] | – | – | 0% | 93% | – |
| COc1cc2c(Oc3cc4cccnc4nc3C)ccnc2cc1OCCO [Compound r400] | 82% | 100% | – | – | – |
| CCCOC(=O)c1cc(-c2ccc(F)cc2F)ccc1Oc1ccnc2cc(OC)c(OC)cc12 [Compound r96] | – | – | 19% | 65% | – |
| CCCOC(=O)c1cc(C(C)=O)ccc1Oc1ccnc2cc(OC)c(OC)cc12 [Compound r95] | – | – | 67% | 96% | – |
| COc1cc2c(Oc3cc(C)c(C)nc3-c3cccc(C)n3)ccnc2cc1OCCNCCO [Compound r468] | 99% | – | – | – | – |

| Structure (SMILES) | inhibition at 3 µM [1] | inhibition at 10 µM [2] | inhibition at 3 µM [3] | inhibition at 10 µM [4] | other results |
| --- | --- | --- | --- | --- | --- |
| COc1cc2c(Oc3cc(C)c(C)nc3-c3ccccc3)ccnc2cc1OCc1ccccc1 [Compound r331] | 73% | 90% | – | – | – |
| COc1cc2nccc(Oc3ccc(C)nc3-c3cc(C)no3)c2cc1OC [r258] | 99% | 100% | – | – | – |
| COc1cc2nccc(Oc3ccc(C)cc3C(=O)CC(C)(C)C)c2cc1OC [Compound r55] | – | – | 53% | 98% | – |
| COc1cc2nccc(Oc3cc4cccnc4nc3-c3csc4ccccc34)c2cc1OC [Compound 91, 2-Benzo[b]thiophen-3-yl-3-(6,7-dimethoxy-quinolin-4-yloxy)-[1,8]naphthyridine] | – | – | – | – | inhibition at 3 µM [5]: 97%; inhibition at 10 µM [6]: 100% |
| COc1cc2c(Oc3cc4ccccc4nc3C(C)=O)ccnc2cc1OCCO [Compound r392] | 93% | 100% | – | – | – |
| CCc1ccc(Oc2ccnc3ccccc23)c(-c2ncccn2)n1 [Compound 117, 4-(6-Ethyl-2-pyrimidin-2-yl-pyridin-3-yloxy)-quinoline] | – | – | – | – | inhibition at 3 µM [5]: 96%; inhibition at 10 µM [6]: 100% |
| COc1ccc(Oc2ccnc3cc(OC(=O)N4CCOCC4)c(OC)cc23)c(C(C)=O)c1 [Compound r118, 4-(2-Acetyl-4-methoxyphenoxy)-6-methoxy-7-quinolyl 4-morpholine carboxylate] | – | – | 97% | 100% | – |
| COc1cc2nccc(Oc3ccc(C)nc3C)c2cc1OC [Compound r209] | 99% | 100% | – | – | – |
| COC(=O)CCCCCCC(=O)c1cc(C)ccc1Oc1ccnc2cc(OC)c(OC)cc12 [r187] | 35% | 91% | – | – | – |
| COc1cc2nccc(Oc3cc4ccccc4nc3OC3CCCC3)c2cc1OC [r280] | 45% | 88% | – | – | – |
| COc1cc2nccc(Oc3cc(C(C)(C)C)c(OC)cc3C(C)=O)c2cc1OC [Compound r185] | 11% | 59% | – | – | – |
| COc1cc2nccc(Oc3ccc(C)cc3Br)c2cc1OC [Compound r4] | – | – | 20% | 78% | – |
| COc1cc2nccc(Oc3ccc(C)cc3C)c2cc1OC [r5] | – | – | 13% | 56% | – |
| COc1cc2nccc(Oc3cc4cccnc4cc3-c3ccccc3)c2cc1OC [Compound r299, 6,7-Dimethoxy-4-(7-phenyl-quinolin-6-yloxy)-quinoline] | 99% | 100% | – | – | – |
| COc1cc2nccc(Oc3cc4cncnc4cc3C)c2cc1OC [Compound r305, 6-(6,7-Dimethoxy-quinolin-4-yloxy)-7-methyl-quinazoline] | 28% | 64% | – | – | – |
| CCC(O)c1cc(C)ccc1Oc1ccnc2cc(OC)c(OC)cc12 (centres unmarked) [Compound r9, 1-{2-[(6,7-Dimethoxy-4-quinolyl)oxy]-5-methylphenyl}-1-propanol] | – | – | 29% | 77% | – |
| COc1cc2nccc(Oc3cc4cnccc4nc3-c3ccccc3)c2cc1OC [Compound 93, 3-(6,7-Dimethoxy-quinolin-4-yloxy)-2-phenyl-[1,6]naphthyridine] | – | – | – | – | inhibition at 3 µM [5]: 97%; inhibition at 10 µM [6]: 100% |
| COc1cc2c(Oc3cc4ccccc4nc3C)ccnc2cc1OC(CO)CO [Compound r374] | 26% | 79% | – | – | – |
| COc1cc2nccc(Oc3cc4cccnc4nc3-c3ccccn3)c2cc1OC [r421] | 94% | 100% | – | – | – |
| COc1cc2c(Oc3ccc(C)cc3C(=O)c3ccccc3)ccnc2cc1OCC(O)CN1CCNCC1 (centres unmarked) [Compound r157] | – | – | 100% | 100% | – |
| COc1cc2nccc(Oc3ccc(Cl)nc3)c2cc1OC [r206] | 69% | 94% | – | – | – |

Source: patent EP1724268A1, “COMPOUND HAVING TGF-BETA INHIBITORY ACTIVITY AND PHARMACEUTICAL COMPOSITION CONTAINING SAME” (KIRIN BEER KABUSHIKI KAISHA, priority 2004, dated 2005)
